Entries after “also recorded” stand apart in the source; their conditions may differ.
Experiments:
[1] = system: JEG-3 cells; assay: CellTiter-Blue cell viability assay, JEG-3 cells; assay type: cell-based, human; settings: for JEG3 cell death, single agent: CellTitre Blue, increasing doses, 48 and 72 hours, FIGS. 7A, 8A
Protocol: (§1) JEG-3 and BeWo cells were cultured in DMEM/F-12 medium containing L-glutamine (Invitrogen) supplemented with 10% fetal calf serum (ICP Biologicals). For treatments with methotrexate (Sigma) or Gefitinib (LC Laboratories) media was replaced with media containing 1% FCS.
(§2) Viability was analysed using the CellTiter-Blue® Cell Viability Assay (Promega).
(§3) Two different placenta-derived trophoblast-like human choriocarcinoma cell lines as well as isolated human first trimester extravillous trophoblast cells were incubated with methotrexate±gefitinib at various concentrations for 72 hours. […] The viability of the JEG-3, BeWo and primary first trimester extravillous trophoblast cells after treatment with methotrexate and gefitinib was assessed by the CellTiter-Blue® Cell Viability Assay.
(§4) JEG-3, BeWo and primary first trimester trophoblast cells were seeded at 5000 cells per well in 96-well plates in DMEM/F-12 culture medium containing 1% foetal bovine serum and 1% penicillin/streptomycin and incubated at 37° C. in a humidified atmosphere of 5% CO2. Approximately 40 hours after seeding, drugs were added to the cells in DMEM/F-12 containing 1% foetal bovine serum. A dose of 100 μM of methotrexate (JEG-3 and primary first trimester trophoblast cells) and 200 μM of methotrexate (syncytialised BeWo cells) was used because this dose decreased cell viability by approximately 50%, as observed in initial dose-response experiments. Cells treated with vehicle (DMSO) served as control cells. In all figures, data are expressed as means±SEM. One-way ANOVA and Student's t test were used to compare means between experimental groups. Statistical significance was assumed at P values<0.05. All experiments have been repeated at least twice.

[2] = system: subcutaneous JEG3 xenografts; assay: Subcutaneous JEG-3 xenograft model in SCID mice; assay type: in vivo; settings: i.p.; for xenograft tumour volume at the doses chosen for combination: MTX 0.04 mg/dose, gefitinib 0.5 mg/dose; for xenograft tumour volume, single agent at different doses: days 7 and 13 (FIG. 11: days 7, 10 and 13), FIGS. 10A, 10B, 11
Protocol: 5- to 6-week-old female SCID mice (C.B-17-Igh-1^b-Prkdc^scid; Animal Resources Centre, Perth, Australia) were inoculated with JEG-3 cells (10^6 in 100 μL PBS) subcutaneously. Mice were treated starting at day 7 after JEG-3 injection with gefitinib (0.5-2 mg per dose in 50 μL DMSO), methotrexate (0.04-0.4 mg per dose in 100 μL buffer) or respective vehicle (DMSO/buffer) per intraperitoneal injection (i.p.). Xenograft volume in cubic millimeters was determined using the formula (length×width^2)/2, where length was the longest axis and width was the measurement at right angles to the length. The mice were sacrificed after 19 days, at which time we excised the xenografts, weighed and measured them, and collected blood by cardiac puncture. hCG was quantified in mouse serum using the Elegance hCG ELISA assay (Bioclone). The animal study was reviewed and approved by the Monash University Animal Welfare Committee.
A subcutaneous JEG-3 xenograft model as established in SCID mice where 1×10^6 JEG-3 cells were injected into the flanks of mice.
Once palpable, xenograft growth was monitored by measuring tumour length and width every 3 days using digital callipers. Tumour volume in mm^3 was determined using the formula […], where length was the longest axis and width being the measurement at right angles to the length. Data are expressed as average tumour volume±SEM for each treatment group.
Mean tumour volume was monitored by digital calliper measurements every 3 days. Tumour volume was determined as described above.

[3] = system: IKB-α; assay: Bio-Plex phosphoprotein assay in JEG3 cells, IKB-α; assay type: cell-based, human; settings: FIG. 12D
Protocol: (§5) Cell lysates were analyzed for levels of phosphorylated Akt, p-38 MAPK, IκB-α or Erk1/2 using the Bio-Plex Phosphoprotein Assays (Bio-Rad Laboratories).
(§6) To further explore how these drugs may be acting together to enhance placental cell death, the inventors investigated the phosphorylation status of Akt, p38 mitogen-activated protein kinase (p38-MAPK), extracellular signal-regulated kinase 1/2 (ERK1/2) and IKappaB Kinase (IKB) in response to various treatments in JEG3 cells. These are key signaling molecules representing major downstream pathways of EGFR (Dutta PR & Maity A (2007) Cancer Lett 254:165-177).

[4] = system: ERK1/2; assay: Bio-Plex phosphoprotein assay in JEG3 cells, ERK1/2; assay type: cell-based, human; settings: FIG. 12C
Protocol: as §5, §6

[5] = system: p38 MAPK; assay: Bio-Plex phosphoprotein assay in JEG3 cells, p38 MAPK; assay type: cell-based, human; settings: FIG. 12B
Protocol: as §5, §6

[6] = system: Akt; assay: Bio-Plex phosphoprotein assay in JEG3 cells, Akt; assay type: cell-based, human; settings: JEG3 cells treated with EGF, FIG. 12A
Protocol: as §5, §6

[7] = system: JEG3 cells; assay: xCELLigence real-time analysis of JEG3 cell growth; assay type: cell-based, human; settings: for decrease in JEG3 growth (xCELLigence): FIG. 6B
Protocol: The Real-Time Cell Analyzer (RTCA) SP instrument (Roche Diagnostics GmbH) was placed in a humidified incubator maintained at 37° C. with 5% CO2. Cells were seeded at 625-40,000 cells per well in 96-well plates (E-plate 96, Roche Diagnostics GmbH) in medium containing 1% or 10% serum. Cells were initially monitored once every 2 min for 1 h and then once every hour. After addition of treatment, cells were monitored once every 10 min for 3 h and thereafter once every hour.
[…]. By taking continuous measurements, this assay also tracks cell growth longitudinally. […].

[8] = system: syncytialised BeWo cells; assay: CellTiter-Blue cell viability assay, syncytialised (forskolin-treated) BeWo cells; assay type: cell-based, human; settings: for BeWo cell death, single agent: CellTitre Blue, increasing doses, FIGS. 7B, 8B
Protocol: as §1, §2, §3, §4
The effect of combined addition of methotrexate and gefitinib on cell viability of syncytialised BeWo cells is shown in FIG. 3. […] Methotrexate and gefitinib were administered to syncytialised (forskolin-treated) BeWo cells and cell viability determined after 72 hours by CellTiter-Blue assay.

[9] = system: developing embryo; settings: administered for 11 weeks to a person who conceived during a clinical trial; cited from earlier work
[10] = target: T1, EGFR (Homo sapiens, UniProt P00533); assay: Western blot of EGF induced EGFR phosphorylation in JEG3 cells; assay type: cell-based; settings: pre-incubation of JEG3 cells, FIG. 5
T1 construct: endogenous in cells; host or cells: JEG3 cells
T1 sequence (P00533 25-1210): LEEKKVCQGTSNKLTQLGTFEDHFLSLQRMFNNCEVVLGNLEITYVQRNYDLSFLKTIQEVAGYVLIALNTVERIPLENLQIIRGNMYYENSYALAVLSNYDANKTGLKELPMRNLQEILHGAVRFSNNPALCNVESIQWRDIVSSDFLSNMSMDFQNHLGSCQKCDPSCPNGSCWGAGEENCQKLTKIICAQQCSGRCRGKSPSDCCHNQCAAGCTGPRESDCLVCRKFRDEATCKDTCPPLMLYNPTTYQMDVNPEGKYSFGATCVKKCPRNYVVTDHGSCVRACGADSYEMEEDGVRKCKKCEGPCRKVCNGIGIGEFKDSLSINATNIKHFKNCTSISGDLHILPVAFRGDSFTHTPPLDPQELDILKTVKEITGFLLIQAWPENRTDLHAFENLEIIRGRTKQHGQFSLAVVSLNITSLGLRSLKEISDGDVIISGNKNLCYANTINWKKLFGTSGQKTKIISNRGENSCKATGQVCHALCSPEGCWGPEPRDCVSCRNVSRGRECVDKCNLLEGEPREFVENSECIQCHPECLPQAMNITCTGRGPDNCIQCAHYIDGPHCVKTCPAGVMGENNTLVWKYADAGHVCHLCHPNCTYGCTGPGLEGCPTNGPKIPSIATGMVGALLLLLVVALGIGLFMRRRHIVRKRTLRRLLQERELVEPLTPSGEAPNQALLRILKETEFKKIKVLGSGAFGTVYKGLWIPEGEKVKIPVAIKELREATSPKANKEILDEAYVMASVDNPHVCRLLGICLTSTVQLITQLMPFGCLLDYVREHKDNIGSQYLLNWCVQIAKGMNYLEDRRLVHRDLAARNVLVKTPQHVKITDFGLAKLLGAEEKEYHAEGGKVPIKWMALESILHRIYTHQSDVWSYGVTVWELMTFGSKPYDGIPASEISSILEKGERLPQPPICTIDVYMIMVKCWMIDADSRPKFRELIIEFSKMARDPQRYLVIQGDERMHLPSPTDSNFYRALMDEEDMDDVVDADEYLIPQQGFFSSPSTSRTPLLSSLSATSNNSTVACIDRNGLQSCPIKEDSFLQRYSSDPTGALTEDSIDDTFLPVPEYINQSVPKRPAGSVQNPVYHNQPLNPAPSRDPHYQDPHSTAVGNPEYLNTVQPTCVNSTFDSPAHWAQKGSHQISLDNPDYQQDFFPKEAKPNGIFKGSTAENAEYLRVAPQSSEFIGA
Protocol: Cells were trypsinised, washed and lysed in RIPA buffer (50 mM Tris, 150 mM NaCl, 1% triton, 0.1% SDS, 1 mM EDTA, 0.1% sodium deoxycholate, protease inhibitor cocktail, sodium vanadate) for 10 min prior to 15 min sonication and centrifugation at 4° C. to remove cellular debris. Lysates were resolved by reducing SDS-PAGE and transferred to PVDF membranes using the iBlot dry transfer system (Invitrogen).

[11] = system: primary first trimester extravillous trophoblast cells; assay: CellTiter-Blue cell viability assay, primary first trimester extravillous trophoblast cells; assay type: cell-based; settings: Homo sapiens, 100 μM methotrexate, initial dose-response experiments, read-out: decrease in cell viability
From the text: 1st trimester placenta was collected from healthy women undergoing elective termination of pregnancy (amenorrhea: 8-10 weeks). This research protocol, including written consent from patients, was approved by the Southern Health Human Research and Ethics Committee. From the 1st trimester placental tissue, primary cytotrophoblast was isolated as previously described (Cartwright J E et al., (2002) Placenta 23:232-235). The inventors confirmed the purity of primary cytotrophoblast cells by immunocytochemistry for cytokeratin 7 as previously described (Paiva P et al., (2007) Endocrinology 148:5566-5572).
as §2
Two different placenta-derived trophoblast-like human choriocarcinoma cell lines as well as isolated human first trimester extravillous trophoblast cells were incubated with methotrexate±gefitinib at various concentrations for 72 hours. […] The viability of the JEG-3, BeWo and primary first trimester extravillous trophoblast cells after treatment with methotrexate and gefitinib was assessed by the CellTiter-Blue® Cell Viability Assay. […]
Importantly, the efficacy of methotrexate±gefitinib was also assessed in primary human extravillous trophoblast cells isolated from first trimester placenta.

[12] = system: caspase-cleaved cytokeratin 18; assay: M30 antibody apoptosis assay (FACS) in JEG3 cells; assay type: cell-based, human; settings: 72 hours, FIG. 13C
Protocol: Cell suspensions were fixed in ice-cold methanol overnight at −20° C., washed in PBS and stained with M30 CytoDeath mouse monoclonal antibody (Sapphire Biosciences), followed by ALEXA® 488-conjugated anti-mouse antibody (Invitrogen). Samples were analyzed on a BD FACS Canto II analyser (BD Biosciences).
Therefore, the inventors performed FACS sorting using the M30 antibody that detects caspase-cleaved cytokeratin 18, a marker of early apoptosis which persists in cells (Ueno T et al., (2005) Biomed Pharmacother 59 Suppl 2, S359-362). […]. The inventors conclude that combination treatment may increase apoptosis in placental cells.

COc1cc2ncnc(Nc3ccc(F)c(Cl)c3)c2cc1OCCCN1CCOCC1 [gefitinib, N-(3-chloro-4-fluorophenyl)-7-methoxy-6-(3-morpholinopropoxy)quinazolin-4-amine]
JEG3 cell death, single agent [1]: not | JEG3 cell death, single agent ([1]; listed as Gefitinib): little or no cell death | xenograft tumour volume at the doses chosen for combination [2]: some reduction | xenograft tumour volume, single agent at different doses [2]: potent dose dependent reductions; also recorded: regresses | EGF induced IKB-α phosphorylation [3]: potently blocked | EGF induced ERK1/2 phosphorylation [4]: potently blocked | EGF induced p38-MAPK phosphorylation [5]: potently blocked | Akt phosphorylation [6]: potently blocked | decrease in JEG3 growth (xCELLigence) ([7]; gefitinib 8 μM): small and transient | decrease in JEG3 growth (xCELLigence) ([7]; gefitinib 2 or 4 μM): no | BeWo cell death, single agent [8]: little or no cell death

CS(=O)(=O)CCNCc1ccc(-c2ccc3ncnc(Nc4ccc(OCc5cccc(F)c5)c(Cl)c4)c3c2)o1 [lapatinib]
effects on the developing embryo [9]: no ill effects on the developing embryo

CN(Cc1cnc2nc(N)nc(N)c2n1)c1ccc(C(=O)N[C@@H](CCC(=O)O)C(=O)O)cc1 [methotrexate]
JEG3 cell death, single agent ([1]; listed as MTX): in a dose dependent manner | JEG3 cell death, single agent ([1]; listed as methotrexate (MTX)): kills JEG3 cells in a dose response manner | cytotoxicity at 100 µM ([1]; Homo sapiens, 100 μM methotrexate, JEG-3 cells, initial dose-response experiments, read-out: decrease in cell viability): ~50% | xenograft tumour volume at the doses chosen for combination [2]: some reduction | xenograft tumour volume, single agent at different doses ([2]; listed as MTX): decrease in xenograft tumour volume was observed with increasing doses | xenograft tumour volume, single agent at different doses ([2]; listed as Methotrexate (MTX)): regresses | EGF induced EGFR phosphorylation [10]: partially inhibited | Akt phosphorylation [6]: significant increase | JEG3 cell growth (xCELLigence) ([7]; FIG. 6, combination: gefitinib doses added to a fixed dose of MTX): decreased JEG3 cell growth in a dose dependent manner | cytotoxicity at 100 µM [11]: ~50% | M30 staining (caspase-cleaved cytokeratin 18, early apoptosis) [12]: increased expression | BeWo cell death, single agent [8]: in a dose dependent manner | cytotoxicity at 200 µM ([8]; Homo sapiens, 200 μM methotrexate, syncytialised BeWo cells, initial dose-response experiments, read-out: decrease in cell viability): ~50%

From US8858939B2, “Ectopic pregnancy treatment” (Monash University, priority 2009, dated 2014)
